From US5948791A, “Quinoline derivatives for treating malaria” (Hoffmann-La Roche Inc., priority 1995, dated 1999)
Values after ≈ are worked out from the molar mass of the structure shown. Where two headings read alike, the source gives them in different places.

Key:
Plasmodium falciparum K1 = experiment: Growth inhibition of Plasmodium falciparum K1 (chloroquine-resistant) in vitro, [G-3H]-hypoxanthin incorporation; assay type: cell-based, Plasmodium falciparum (strain K1); conditions: for IC50: Plasmodium falciparum, K1, 72 h, read-out: IC50 for P. falciparum K1; for Resistance index: ratio of the IC50 for K1 and the IC50 for NF54
Method in brief: (§1)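 Asynchronous intraerythrocytic cultures in human A+ erythrocytes (0.7% parasitemia, 2.5% suspension) in RPMI 1640 with HEPES, NaHCO3 and human serum, exposed to compound titrated over 6-7 steps for 72 h at 37° C, 3% O2. Growth by [G-3H]-hypoxanthin incorporation against untreated controls; IC50 by logit regression.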

[1] = system: Plasmodium falciparum strain NF54; experiment: Growth inhibition of Plasmodium falciparum NF54 (chloroquine-sensitive) in vitro, [G-3H]-hypoxanthin incorporation; assay type: cell-based; conditions: chloroquine-sensitive strain NF54, 72 h, read-out: IC50 for P. falciparum NF54
Method in brief: as §1

Plasmodium berghei = experiment: animal or person; assay type: in vivo, Plasmodium berghei (strain ANKA) in mice; conditions: Plasmodium berghei, mice, blood smears 48 h after treatment
Method in brief: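 Male albino mice (~25 g) infected i.v. on D0 with P. berghei ANKA (0.2 ml of 10^8 parasitized erythrocytes/ml); single s.c. and p.o. dose 24 h post-infection, 10 mg/kg screen then titration.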

[2] = po, single peroral dose of 10 mg/kg, read-out: Growth inhibition in % after po administration (GI%, percentage reduction of the parasitemia)
[3] = sc, single subcutaneous dose of 10 mg/kg, read-out: Growth inhibition in % after sc administration (GI%, percentage reduction of the parasitemia)

Compound	IC50 (Plasmodium falciparum K1) [ng/mL]	Resistance index (Plasmodium falciparum K1)	IC50 [1] [ng/mL]	inhibition in vivo at 10 mg/kg (Plasmodium berghei; [2]) [%]	inhibition in vivo at 10 mg/kg (Plasmodium berghei; [3]) [%]
Cl.Cl.Clc1ccc2c(N[C@H]3CC[C@H](NCCc4ccc(Cl)c(Cl)c4)CC3)ccnc2c1 [Example 99, trans-N1-(7-Chloro-quinolin-4-yl)-N4-[2-(3,4-dichloro-phenyl)-ethyl]-cyclohexane-1,4-diamine dihydrochloride]	4.2	1.3	3.3	91	96
COc1ccc(CN[C@H]2CC[C@H](Nc3ccnc4cc(Cl)ccc34)CC2)cc1.Cl.Cl [Example 100, trans N1-(7-Chloro-quinolin-4-yl)-N4-(4-methoxy-benzyl)-cyclohexane-1,4-diamine dihydrochloride]	4	2.1	1.9	14	99
Cl.Cl.Clc1ccc2c(N[C@H]3CC[C@H](NCCc4c(Cl)cccc4Cl)CC3)ccnc2c1 [Example 101, trans-N1-(7-Chloro-quinolin-4-yl)-N4-[2-(2,6-dichloro-phenyl)-ethyl]-cyclohexane-1,4-diamine dihydrochloride]	2.9	1.1	2.7	72	84
Cl.Cl.Clc1ccc2c(N[C@H]3CC[C@H](NCc4ccc(Cl)c(Cl)c4)CC3)ccnc2c1 [Example 102, trans N1-(7-Chloro-quinolin-4-yl)-N4-(3,4-dichloro-benzyl)-cyclohexane-1,4-diamine dihydrochloride]	3.6	1.7	2.1	72	81
Cl.Cl.Clc1ccc2c(N[C@H]3CC[C@H](NCc4ccc5c(c4)OCO5)CC3)ccnc2c1 [Example 103, trans-N1 -Benzo[1,3]dioxol-5-ylmethyl-N4-(7-chloro-quinolin-4-yl)-cyclohexane-1,4-diamine dihydrochloride]	4.6	2.2	2.1	89	99.8
COc1cc(CCN[C@H]2CC[C@H](Nc3ccnc4cc(Cl)ccc34)CC2)ccc1O.Cl.Cl [Example 104, trans-4-{2-[4-(7-Chloro-quinolin-4-ylamino)-cyclohexylamino]-ethyl}-2-methoxy-phenol dihydrochloride]	20.2	5.6	3.6	63	100
COc1cccc(CCN[C@H]2CC[C@H](Nc3ccnc4cc(Cl)ccc34)CC2)c1OC.Cl.Cl [Example 105, trans-N1-(7-Chloro-quinolin-4-yl)-N4-[2-(2,3-dimethoxy-phenyl)-ethyl]-cyclohexane-1,4-diamine dihydrochloride]	15.3	4.5	3.4	55	99
COc1cc(CN[C@H]2CC[C@H](Nc3ccnc4cc(Cl)ccc34)CC2)cc(OC)c1 [Example 106, trans-N1-(7-Chloro-quinolin-4-yl)-N4-(3,5-dimethoxy-benzyl)-cyclohexane-1,4-diamine]	4.4 (≈ 10.3 nM)	2.9	1.5 (≈ 3.52 nM)	98	99.5
Cl.Cl.Clc1cccc(CN[C@H]2CC[C@H](Nc3ccnc4cc(Cl)ccc34)CC2)c1 [Example 107, trans-N1-(3-Chloro-benzyl)-N4-(7-chloro-quinolin-4-yl)-cyclohexane-1,4-diamine dihydrochloride]	3.4	2.4	1.4	84	95
COc1cc(OC)c(CN[C@H]2CC[C@H](Nc3ccnc4cc(Cl)ccc34)CC2)c(OC)c1.Cl.Cl [Example 108, trans N1-(7-Chloro-quinolin-4-yl)-N4-(2,4,6-trimethoxy-benzyl)-cyclohexane-1,4-diamine dihydrochloride]	18.4	4.0	4.6	110	100
Cl.Cl.Clc1ccc(CN[C@H]2CC[C@H](Nc3ccnc4cc(Cl)ccc34)CC2)c(Cl)c1 [Example 109, trans-N1-(7-Chloro-quinolin-4-yl)-N4-(2,4-dichloro-benzyl)-cyclohexane-1,4-diamine dihydrochloride]	3.8	2.1	1.8	75	91
COc1ccc(CN[C@H]2CC[C@H](Nc3ccnc4cc(Cl)ccc34)CC2)cc1OC.Cl.Cl [Example 110, trans-N1-(7-Chloro-quinolin-4-yl)-N4-(3,4-dimethoxy-benzyl)-cyclohexane-1,4-diamine dihydrochloride]	17.2	6.1	2.8	45	99.6
COc1ccc(CN[C@H]2CC[C@H](Nc3ccnc4cc(Cl)ccc34)CC2)c(OC)c1.Cl.Cl [Example 111, trans-N1 (7-Chloro-quinolin-4-yl)-N4-(2,4-dimethoxy-benzyl)-cyclohexane-1,4-diamine dihydrochloride]	10.4	3.6	2.9	25	99.8
COc1cc(CN[C@H]2CC[C@H](Nc3ccnc4cc(Cl)ccc34)CC2)cc(OC)c1OC.Cl.Cl [Example 112, trans-N1-(7-Chloro-quinolin-4-yl)-N4-(3,4,5-trimethoxy-benzyl)-cyclohexane-1,4-diamine dihydrochloride]	17.2	4.0	4.3	99	99.9
CN(C)c1ccc(CN[C@H]2CC[C@H](Nc3ccnc4cc(Cl)ccc34)CC2)cc1.Cl.Cl.Cl [Example 113, trans-N1-(7-Chloro-quinolin-4-yl)-N4-(4-dimethylamino-benzyl)-cyclohexane-1,4-diamine trihydrochloride]	7.6	2.5	3	99.7	99.9
Cl.Cl.Fc1cccc(F)c1CN[C@H]1CC[C@H](Nc2ccnc3cc(Cl)ccc23)CC1 [Example 114, trans-N1-(7-Chloro-quinolin-4-yl)-N4-(2,6-difluoro-benzyl)-cyclohexane-1,4-diamine dihydrochloride]	8.4	2.9	2.9	99	99.9
